Experimental data taken from US7674787B2, “Conformationally constrained Smac mimetics and the uses thereof” (The Regents of the University of Michigan, priority 2004, dated 2010).

Key:
[1] = tested on: Jurkat-Bir3 cells; assay: Sub-G1 apoptosis in Jurkat cells expressing XIAP-Bir3
[2] = tested on: MDA-231 cells; assay: Apoptosis by Annexin V-FITC/propidium iodide in MDA-231 cells; assay type: cell-based, human
Description: Similar experiments were performed using the breast cancer cell line MDA-231. MDA-231 cells in 6-well plates were treated with SH-102 and CDDP, alone or in combination, for 42 hours. Cells were collected and stained with Annexin V-FITC and propidium iodide. The fluorescence of Annexin V-FITC and propidium iodide of individual cells was analyzed by flow cytometry. 25 μM and 50 μM CDDP induced about 25% and 42% of MDA-231 cells to undergo apoptosis as compared to control cells, respectively (FIG. 22). […] Combination of 25 and 50 μM CDDP and 10 μM SH-102 induced about 35% and 75% apoptosis over control cells, respectively (FIG. 22).

[3] = tested on: PC-3 cells; assay: Apoptosis by Annexin V-FITC staining in PC-3 cells; assay type: cell-based, human
Excerpt: SH-97, a peptido-mimetic in which the side chain of alanine has been replaced with an ethyl group and the isoleucine has been replaced with a diphenylmethyl group, was used to test the basic premise. Of note, SH-97 still has two natural amino acids (valine and proline) and one natural peptide bond. […] The experiment used PC-3 cells which express high levels of XIAP and cIAP-1/2 proteins and cisplatin (CDDP) as the chemotherapeutic drug. CDDP is a DNA damaging agent and can effectively induce apoptosis in PC-3 cells and is also a clinically used chemotherapeutic drug for prostate cancer.
PC-3 cells were treated with CDDP, Smac peptides and mimetics alone or in combination for 42 hours and apoptosis was analyzed by Annexin V-FITC staining. […] Combination of 25 μM CDDP and 10 μM or 25 μM SH-97 induced 29.3%±1.9% and 35.8%±0.4% apoptosis over control cells, respectively (FIG. 18A).
Similar experiments were performed with SH-102 (Table 5). PC-3 cells in 6-well plates were treated with SH-102 and CDDP, alone or in combination, for 42 hours. Cells were collected and stained with Annexin V-FITC and propidium iodide. The fluorescence of Annexin V-FITC and propidium iodide of individual cells was analyzed by flow cytometry. […] Combination of 25 μM CDDP and 10 μM SH-102 induced 32% apoptosis over control cells (FIG. 19).
The same experiment was performed using TAXOTERE (docetaxel), another cancer chemotherapeutic drug. PC-3 cells in 6-well plates were treated with SH-102 and TAXOTERE, alone or in combination, for 42 hours. Cells were collected and stained with Annexin V-FITC and propidium iodide. The fluorescence of Annexin V-FITC and propidium iodide of individual cells was analyzed by flow cytometry. […] Combination of 10 μM TAXOTERE and 10 μM SH-102 induced about 18% apoptosis over control cells (FIG. 21).

[4] = tested on: Jurkat-XIAP cells; assay: Sub-G1 apoptosis in Jurkat cells overexpressing XIAP
[5] = tested on: MDA-435, MDA-468, and T47D cells; assay: Cell growth inhibition, WST-8, breast cancer cell lines; assay type: cell-based, human; settings: Homo sapiens, 120 h, 5 days, each of the three cell lines
Description: To test the effect of Smac mimetics by themselves in inhibition of cell growth in human cancer cells, SH-102 was administered to three different breast cancer cell lines. MDA-435, MDA-468, and T47D cells were seeded in 96-well plates with increasing concentrations of SH-102, Smac8, or Smac8-C. The cells were then incubated at 37° C. with 5% CO2 for 5 days, followed by detection of cell viability with WST-8 (10% Dojindo solution in IMEM with 10% FCS). OD values at 450 nm with reference at 650 nm were read approximately 3 hours later. Untreated cells were used as 100% growth. […]. […] (FIGS. 26A-26C).

[6] = tested on: normal prostate epithelial cells; assay: Cell growth inhibition, WST-8, normal cells; assay type: cell-based; settings: 5 days
Description: (§1) To test the effect of [6.3.0] Smac mimetics in inhibition of cell growth in human cancer cells, compounds were administered to several different cancer cell lines. BT-549, MDA-MB-231 (subclone 2LMP), and MDA-MB-231 (ATCC) human breast cancer cells and PC-3 human prostate cancer cells were seeded in 96-well plates with increasing concentrations of the compounds. To assay for the selectivity of the compounds for cancer cells, normal prostate epithelial cells were also tested. The cells were then incubated at 37° C. with 5% CO2 for 5 days, followed by detection of cell viability with WST-8. Untreated cells were used as 100% growth. The compounds tested were SH-109, SH-122 and SH-123 (Table 6).

[7] = tested on: MDA-MB-231 (subclone 2LMP) breast cancer cells; assay: Cell growth inhibition in combination with TRAIL, WST-8; assay type: cell-based, human; settings: 4 days
Description: To test the ability of SH-122 to enhance the cell growth inhibitory activity of TRAIL, MDA-MB-231 (subclone 2LMP) breast cancer cells were seeded in 96-well plates with various concentrations of TRAIL in the presence of increasing amounts of SH-122. The cells were then incubated at 37° C. with 5% CO2 for 4 days, followed by detection of cell viability with WST-8.

[8] = tested on: BT-549, MDA-MB-231 (subclone 2LMP), MDA-MB-231 (ATCC) and PC-3 cells; assay: Cell growth inhibition, WST-8, cancer cell lines; assay type: cell-based, human
Description: as §1

[9] = target: XIAP BIR3 (Homo sapiens, UniProt P98170); assay: biochemical
Sequence of XIAP BIR3 (P98170 241-356): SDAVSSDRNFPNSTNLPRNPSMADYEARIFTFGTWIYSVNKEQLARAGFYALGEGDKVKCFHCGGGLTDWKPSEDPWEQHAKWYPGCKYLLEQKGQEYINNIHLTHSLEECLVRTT

[10] = tested on: Jurkat-Vec cells; assay: Sub-G1 apoptosis in Jurkat cells with control vector; assay type: cell-based, human; settings: 10 μM etoposide alone, 15 hours
Description: Data were analyzed to calculate the percentage of sub-G1 cells (apoptotic cells) using CellQuest software (Becton Dickinson).

[11] = target: XIAP (Homo sapiens, UniProt P98170); settings: background statement; cited from earlier work
Sequence of XIAP (P98170 whole entry): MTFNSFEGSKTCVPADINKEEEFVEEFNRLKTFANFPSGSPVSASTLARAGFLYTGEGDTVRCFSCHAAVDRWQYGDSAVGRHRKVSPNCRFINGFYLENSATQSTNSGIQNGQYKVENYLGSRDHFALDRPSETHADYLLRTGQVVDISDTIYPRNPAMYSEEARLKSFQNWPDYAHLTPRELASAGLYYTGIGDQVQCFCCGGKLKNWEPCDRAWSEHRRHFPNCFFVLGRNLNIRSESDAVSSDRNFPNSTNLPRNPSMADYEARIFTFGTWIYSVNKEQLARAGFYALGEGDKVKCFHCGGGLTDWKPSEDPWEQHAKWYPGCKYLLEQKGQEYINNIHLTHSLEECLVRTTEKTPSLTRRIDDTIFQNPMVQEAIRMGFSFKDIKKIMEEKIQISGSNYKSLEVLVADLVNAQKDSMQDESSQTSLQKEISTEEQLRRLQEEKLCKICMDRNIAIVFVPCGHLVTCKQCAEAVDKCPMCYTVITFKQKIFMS

CC[C@H](N)C(=O)N[C@H]1CCC[C@H]2CC[C@@H](C(=O)NC(c3ccccc3)c3ccccc3)N2C1=O [Compound 34]
apoptosis ([1]; etoposide + 10 μM SH-102): about 25% | apoptosis ([1]; etoposide + 20 μM SH-102): ~30% | ability to sensitize cells to CDDP ([2]; 10 μM SH-102 compared with 100 μM pSmac8-C): as great as that of 100 μM pSmac8-C | apoptosis over control cells ([2]; 25 μM CDDP + 10 μM SH-102, 42 hours): about 35% | apoptosis over control cells ([2]; 50 μM CDDP + 10 μM SH-102, 42 hours): ~75% | apoptosis over control cells ([3]; 10 μM TAXOTERE + 10 μM SH-102, 42 hours): about 18% | apoptosis over control cells ([3]; 25 μM CDDP + 10 μM compound, 42 hours): 32% | apoptosis compared to untreated cancer cells ([3]; compound alone up to 100 μM, 42 hours): did not induce significantly more apoptosis | effectiveness in overcoming protective effect of XIAP ([4]; 10 μM SH-102 compared with 50 μM Smac8-C): at least as effective as 50 μM Smac8-C | apoptosis (sub-G1) ([4]; 10 μM SH-102 in combination with etoposide, 15 hours): about 15% | IC50 [5]: 30000 to 70000 nM

CC[C@H](NC)C(=O)N[C@H]1CCCC[C@H]2CC[C@@H](C(=O)NC(c3ccccc3)c3ccccc3)N2C1=O [SH-122]
cell growth inhibition (in words) [6]: no cell growth inhibition effect | decrease of the IC50 of TRAIL ([7]; 250 nM SH-122 with TRAIL): approximately ten-fold | cell growth inhibition (in words) ([8]; 5 days, WST-8, each of the cancer cell lines): inhibited the cell growth | rank of potency in cell growth inhibition ([8]; among SH-109, SH-122, SH-123, each cell line): most potent | Ki [9]: 30 nM

COc1cc([C@@H]2c3cc4c(cc3[C@@H](O[C@@H]3O[C@@H]5CO[C@@H](C)O[C@H]5[C@H](O)[C@H]3O)[C@H]3COC(=O)[C@H]23)OCO4)cc(OC)c1O [etoposide, reference compound]
apoptosis ([1]; 20 μM etoposide alone): about 18% | apoptotic cells (sub-G1) ([4]; 10 μM etoposide alone, 15 hours): about 10% | apoptotic cells (sub-G1) [10]: about 50%

B1: mature Smac protein: mature Smac protein, endogenous inhibitor of XIAP (protein, UniProt Q9NR28 22-239, looked up)
Diablo IAP-binding …: LCVPVVANFKKRCFSELIRPWHKTVTIGFGVTLCAVPIAQKSEPHSLSSEALMRRAVSLVTDSTSTFLSQTTYALIEAITEYTKAVYTLTSLYRQYTSLLGKMNSEEEDEVWQVIIGARAEMTSKHQEYLKLETTWMTAVGLSEMAAEAAYQTGADQASITARNHIQLVKLQVEEVHQLSRKAETKLAEAQIEELRQKTQEEGEERAESEQEAYLRED
Kd [11]: 420 nM

B2: TRAIL: tumor necrosis factor-related apoptosis-inducing ligand (protein, UniProt P50591 1-281, looked up)
Tumor necrosis factor ligand …: MAMMEVQGGPSLGQTCVLIVIFTVLLQSLCVAVTYVYFTNELKQMQDKYSKSGIACFLKEDDSYWDPNDEESMNSPCWQVKWQLRQLVRKMILRTSEETISTVQEKQQNISPLVRERGPQRVAAHITGTRGRSNTLSSPNSKNEKALGRKINSWESSRSGHSFLSNLHLRNGELVIHEKGFYYIYSQTYFRFQEEIKENTKNDKQMVQYIYKYTSYPDPILLMKSARNSCWSKDAEYGLYSIYQGGIFELKENDRIFVSVTNEHLIDMDHEASFFGAFLVG
cell growth inhibition (in words) ([7]; TRAIL by itself): inhibited the growth of the cells in a dose dependent fashion
